We go through 11 molecules from patent US20260138948A1, “N-SUBSTITUTED INDOLES AS 5-HYDROXYTRYPTAMINE (5-HT) SEROTONIN RECEPTOR AGONISTS AND ANTAGONISTS” (Terran Biosciences Inc., priority 2021, published 2026).

A short description of series [1]: Metabolic stability in human liver microsomes. It is filed as in vitro ADME. As to conditions: for difference in half-life and intrinsic clearance compared with reference compound (R)-1-(5-methoxy-1H-indol-1-yl)-N,N-dimethylpropan-2-amine / microsomal CLint at 1 μM: human liver microsomes; for difference in half-life and intrinsic clearance compared with reference compound (R)-1-(5-methoxy-1H-indol-1-yl)-N,N-dimethylpropan-2-amine: comment on Table 2; for half-life at 1 μM / microsomal CLint at 1 μM / CLint scaled at 1 μM: liver microsomes (pooled); for half-life at 1 μM: human liver microsomes 0.5 mg/mL, test compound 1.0 μM, 37° C., NADPH; for microsomal CLint at 1 μM: intrinsic clearance = 0.693/T1/2/mg microsome protein per mL, read-out: CLint(mic); for CLint scaled at 1 μM: human, scaled from CLint(mic) with 45 mg microsomal protein/g liver and 20 g liver/kg. The protocol:
The test compound at 1.0 μM in singlet, or positive controls including Testosterone (CYP3A4 substrate), Propafenone (CYP2D6 substrate) or Diclofenac (CYP2C9 substrate) was incubated with the liver microsomes (Corning, Xenotech, or other credible vendor, pooled from multiple donors) at 0.5 mg/mL, respectively. The mixture was warmed up at 37° C. for 10 minutes and the reactions were initiated by the addition of a NADPH regenerating system (˜1.0 mM). The test compound incubated with the liver microsomes at 37° C. without the NADPH regenerating system served as the negative control reaction.
The reaction samples were removed at multiple time points (such as 0, 5, 15, 30, 45 and 60 minutes) and the sample without NADPH (NCF) was removed at 60 minutes. All the samples were immediately mixed with cold acetonitrile containing internal standard (IS) to stop the reaction.
Samples were analyzed by LC/MS/MS and the disappearance of test compound were assessed base on peak area ratios of analyte/IS (no standard curve). The microsomal intrinsic clearance and T1/2 values were calculated using the following equation: […]
The microsomal intrinsic clearance and T1/2 values were calculated using the following equation: […]
In these experiments the comparator compound was a suitable reference standard. In one embodiment the comparator compound was (R)-1-(5-methoxy-1H-indol-1-yl)-N,N-dimethylpropan-2-amine.

The subject of series [2] is 5HT2A sensor. As to conditions: general statement on known hallucinogens and non-hallucinogenic congeners; cited from earlier work.

For `[2H]C([2H])([2H])Oc1ccc2c(ccn2C([2H])([2H])[C@]([2H])(N(C([2H])([2H])[2H])C([2H])([2H])[2H])C([2H])([2H])[2H])c1` [Compound 152, (2R)-1,1,1,2,3,3-hexadeuterio-3-[5-(trideuteriomethoxy)indol-1-yl]-N,N-bis(trideuteriomethyl)propan-2-amine], in series [1], the “difference in half-life and intrinsic clearance compared with reference compound (R)-1-(5-methoxy-1H-indol-1-yl)-N,N-dimethylpropan-2-amine” value (“difference” for short) is “significant and beneficial differences in half-life and intrinsic clearance”; the half-life at 1 μM was determined as 1.91 h; the microsomal CLint at 1 μM was 12.4 µL/min/mg; the CLint scaled at 1 μM stood at 11.1 mL/min/kg. For `CCN(CC)C(=O)[C@@H]1C=C2c3cccc4[nH]cc(c34)C[C@H]2N(C)C1` [LSD, lysergic acid diethylamide], the “activation of the 5HT2A sensor assay in agonist mode” value (“activation of the 5HT2A sensor assay” for short) in series [2] was “activate the 5HT2A sensor assay in agonist mode”. Consider `CCN(CC)C(=O)[C@@H]1C=C2c3cccc4[nH]c(Br)c(c34)C[C@H]2N(C)C1` [BOL148], for which, in series [2], the “activation of the 5HT2A sensor assay” value is listed as “do not activate the 5HT2A sensor assay in agonist mode”. On to `CCN(CC)CCc1c[nH]c2cc(F)ccc12` [Compound 6-F-DET], for which the “activation of the 5HT2A sensor assay” value in series [2] is “do not activate the 5HT2A sensor assay in agonist mode”.

Take `CN(C)CCc1c[nH]c2ccccc12` [DMT, N,N-dimethyltryptamine]: the “activation of the 5HT2A sensor assay” value in series [2] is given as “activate the 5HT2A sensor assay in agonist mode”. For `[2H]C([2H])([2H])Oc1ccc2c(ccn2C([2H])([2H])[C@]([2H])(N(C)C)C([2H])([2H])[2H])c1` [Compound 151, (2R)-1,1,1,2,3,3-hexadeuterio-N,N-dimethyl-3-[5-(trideuteriomethoxy)indol-1-yl]propan-2-amine], in series [1], the “difference” value is “most significant difference in half-life and intrinsic clearance ratio”; the half-life at 1 μM worked out at 2 h; the microsomal CLint at 1 μM came out at 11.5 µL/min/mg; the intrinsic metabolic clearance (CLint scaled) at 1 μM stood at 10.4 mL/min/kg. In the case of `[2H]C([2H])([2H])N(C([2H])([2H])[2H])[C@]([2H])(C([2H])([2H])[2H])C([2H])([2H])n1ccc2cc(OC)ccc21` [Compound 6, (2R)-1,1,1,2,3,3-hexadeuterio-3-(5-methoxyindol-1-yl)-N,N-bis(trideuteriomethyl)propan-2-amine], in series [1], the “difference” value was “significant and beneficial differences in half-life and intrinsic clearance”; the half-life at 1 μM worked out at 1.82 h; the microsomal CLint at 1 μM was 12.7 µL/min/mg; the CLint scaled at 1 μM amounted to 11.4 mL/min/kg. As for `O=C(c1ccc(F)cc1)C1CCN(CCn2c(=O)[nH]c3ccccc3c2=O)CC1` [Ketanserin, ketanserin], the “activation of the 5HT2A sensor assay” value in series [2] is “do not activate the 5HT2A sensor assay in agonist mode”.

Take `COc1ccc2c(CCN(C)C)c[nH]c2c1` [Compound 6-MeO-DMT]: in series [2], the “activation of the 5HT2A sensor assay” value is listed as “do not activate the 5HT2A sensor assay in agonist mode”. With `CN[C@H](C)Cc1ccc2c(c1)OCO2` [L-MDMA], the “activation of the 5HT2A sensor assay” value in series [2] was “do not activate the 5HT2A sensor assay in agonist mode”. For the molecule `COc1cc(CC(C)N)c(OC)cc1I` (centres unmarked) [DOI, 2,5-dimethoxy-4-iodoamphetamine], in series [2], the “activation of the 5HT2A sensor assay” value was “activate the 5HT2A sensor assay in agonist mode”.
